Read-outs that look alike come from different tables or passages of the source.
Tests used:
γ-H2AX [1] = test: Western blot of RD-ES tumor xenograft tissue; type: in vivo, human
From the text: (§1) In several cases, the levels of c-Myc were more greatly depressed at the lower dose level. For examples, see the 9-hour data for G104 in Tables 17 and 18 and the 6-hour data in Table 19. […] Overall, there are many unexpected and unexplained aspects of the data in Tables 17-19, which are highly variable and also highly dependent on cell type. In particular, drug-induced increases in c-Myc expression relative to control and the larger changes in c-Myc expression seen at lower vs. higher doses are counterintuitive and unexplained.

c-Myc [2] = test: Western blot of RD-ES tumor xenograft tissue; type: in vivo, human
From the text: as §1

γ-H2AX [3] = test: Western blot of MOLT-4 tumor xenograft tissue; type: in vivo, human
From the text: as §1

c-Myc [4] = test: Western blot of RS4;11 tumor xenograft tissue; type: in vivo, human
From the text: as §1

in vivo = type: in vivo
[5] = type: in vivo
γ-H2AX [6] = test: Western blot of RS4;11 tumor xenograft tissue; type: in vivo, human
c-Myc [7] = test: Western blot of MOLT-4 tumor xenograft tissue; type: in vivo, human

CCNCCCn1c2c(c3cc(OC)c(OC)cc3c1=O)C(=O)c1cc3c(nc1-2)OCO3 [G104, 6-(3-(Ethylamino)propyl)-2,3-dimethoxy-5H-[1,3]dioxolo[4″,5″:5′,6′]pyrido [3′,2′:4,5]cyclopenta[1,2-c]isoquinoline-5,12(6H)-dione]
γ-H2AX/GAPDH, % Relative to Vehicle (γ-H2AX [1]; IV 15 mg/kg, 3 h): 155.18 ± 11.44%
γ-H2AX/GAPDH, % Relative to Vehicle (γ-H2AX [1]; IV 15 mg/kg, 6 h): 101.89 ± 7.35%
γ-H2AX/GAPDH, % Relative to Vehicle (γ-H2AX [1]; IV 30 mg/kg, 3 h): 85.61 ± 23.26%
γ-H2AX/GAPDH, % Relative to Vehicle (γ-H2AX [1]; IV 30 mg/kg, 6 h): 99.26 ± 10.19%
c-Myc/GAPDH, % Relative to Vehicle (c-Myc [2]; IV 15 mg/kg, 3 h): 128.94 ± 6.14%
c-Myc/GAPDH, % Relative to Vehicle (c-Myc [2]; IV 15 mg/kg, 6 h): 53.57 ± 10.75%
c-Myc/GAPDH, % Relative to Vehicle (c-Myc [2]; IV 30 mg/kg, 3 h): 188.78 ± 28.24%
c-Myc/GAPDH, % Relative to Vehicle (c-Myc [2]; IV 30 mg/kg, 6 h): 91.67 ± 23.70%
γ-H2AX/GAPDH, % Relative to Vehicle (γ-H2AX [3]; MOLT-4, IV 15 mg/kg, 3 h): 71.86 ± 8.95%
γ-H2AX/GAPDH, % Relative to Vehicle (γ-H2AX [3]; MOLT-4, IV 15 mg/kg, 9 h): 138.12 ± 23.51%
γ-H2AX/GAPDH, % Relative to Vehicle (γ-H2AX [3]; MOLT-4, IV 30 mg/kg, 3 h): 47.29 ± 12.20%
γ-H2AX/GAPDH, % Relative to Vehicle (γ-H2AX [3]; MOLT-4, IV 30 mg/kg, 9 h): 168.88 ± 39.58%
c-Myc/GAPDH, % Relative to Vehicle (c-Myc [4]; RS4;11, IV 15 mg/kg, 3 h): 92.20 ± 2.11%
c-Myc/GAPDH, % Relative to Vehicle (c-Myc [4]; RS4;11, IV 15 mg/kg, 9 h): 92.59 ± 13.64%
c-Myc/GAPDH, % Relative to Vehicle (c-Myc [4]; RS4;11, IV 30 mg/kg, 3 h): 111.60 ± 8.19%
c-Myc/GAPDH, % Relative to Vehicle (c-Myc [4]; RS4;11, IV 30 mg/kg, 9 h): 100.31 ± 2.71%
Kp at 3 h (in vivo; NOD SCID, mouse, tumor and plasma, RS4;11, 3 h, IV 15 mg/kg, read-out: Mean Tumor/Plasma Ratio): 76.1 ± 18.9
Mean Tumor/Plasma Ratio (in vivo; RS4;11, 3 h, IV 30 mg/kg): 77.3 ± 11.8
Mean Tumor/Plasma Ratio (in vivo; RS4;11, 9 h, IV 15 mg/kg): 130 ± 32
Mean Tumor/Plasma Ratio (in vivo; RS4;11, 9 h, IV 30 mg/kg): 112 ± 16
Mean Tumor/Plasma Ratio ([5]; MOLT-4, 3 h, IV 15 mg/kg): 51.3 ± 6.7
Mean Tumor/Plasma Ratio ([5]; MOLT-4, 3 h, IV 30 mg/kg): 69.5 ± 8.8
Mean Tumor/Plasma Ratio ([5]; MOLT-4, 9 h, IV 15 mg/kg): 125 ± 29
Mean Tumor/Plasma Ratio ([5]; MOLT-4, 9 h, IV 30 mg/kg): 106 ± 21
γ-H2AX/GAPDH, % Relative to Vehicle (γ-H2AX [6]; RS4;11, IV 15 mg/kg, 3 h): 133.08 ± 38.59%
γ-H2AX/GAPDH, % Relative to Vehicle (γ-H2AX [6]; RS4;11, IV 15 mg/kg, 9 h): 142.66 ± 23.92%
γ-H2AX/GAPDH, % Relative to Vehicle (γ-H2AX [6]; RS4;11, IV 30 mg/kg, 3 h): 150.28 ± 29.86%
γ-H2AX/GAPDH, % Relative to Vehicle (γ-H2AX [6]; RS4;11, IV 30 mg/kg, 9 h): 220.37 ± 47.79%
c-Myc/GAPDH, % Relative to Vehicle (c-Myc [7]; MOLT-4, IV 15 mg/kg, 3 h): 119.75 ± 13.40%
c-Myc/GAPDH, % Relative to Vehicle (c-Myc [7]; MOLT-4, IV 15 mg/kg, 9 h): 88.54 ± 7.63%
c-Myc/GAPDH, % Relative to Vehicle (c-Myc [7]; MOLT-4, IV 30 mg/kg, 3 h): 114.32 ± 4.41%
c-Myc/GAPDH, % Relative to Vehicle (c-Myc [7]; MOLT-4, IV 30 mg/kg, 9 h): 100.33 ± 2.35%

From patent US20240287089A1, “Preparation and Uses of 7-Azaindenoisoquinolines” (Purdue Research Foundation, priority 0001, published 2024)
